Values joined by “and” are separate entries in the source; they are usually repeats but may differ in a detail not shown here. Identical values can stand only once. Like-named read-outs stand apart in the source and are kept apart here. Where a SMILES comes first, the peptide text is derived from it. Bridges are numbered along the chain shown (N, C = ends). [ ]: non-standard residue; d: D form. The star is where a group is joined. DOTA = O=C(O)CN1CCN(CC(=O)O)CCN(CC(=O)*)CCN(CC(=O)O)CC1; 1Nal = N[C@@H](Cc1cccc2ccccc12)C(=O)O; Thr(ol) = C[C@@H](O)[C@H](N)CO; AllylGly = C=CC[C@H](N)C(=O)O; Bn = c1ccc(C*)cc1
Assays:
[1] = molecular target: T1, sst2 receptor (Homo sapiens, UniProt P30874); parameters: method as in Di Cianni et al., 2010; details: free (unconjugated) dicarba-analogs; mean ± SEM; data published previously; ref Di Cianni et al., 2010; cited from earlier work
T1 construct: Cell membrane pellets were prepared from human sst2-expressing endogeneous IMR32 cells; host or cells: IMR32 cells (membrane pellets)
T1 sequence (P30874 whole entry): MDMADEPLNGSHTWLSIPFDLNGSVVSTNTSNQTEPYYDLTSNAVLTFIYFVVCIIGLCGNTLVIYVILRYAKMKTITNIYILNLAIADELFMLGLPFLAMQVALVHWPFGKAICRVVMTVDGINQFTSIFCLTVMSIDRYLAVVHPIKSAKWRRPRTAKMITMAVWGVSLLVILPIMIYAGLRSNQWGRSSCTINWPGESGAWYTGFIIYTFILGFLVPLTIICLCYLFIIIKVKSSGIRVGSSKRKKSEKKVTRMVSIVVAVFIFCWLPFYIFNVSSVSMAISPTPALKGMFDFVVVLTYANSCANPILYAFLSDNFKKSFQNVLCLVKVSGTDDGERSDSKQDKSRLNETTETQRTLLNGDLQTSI

[2] = molecular target: T2, sst5 receptor (Homo sapiens, UniProt P35346); parameters: method as in Di Cianni et al., 2010; details: free (unconjugated) dicarba-analogs; mean ± SEM; data published previously; ref Di Cianni et al., 2010; cited from earlier work
T2 construct: host or cells: CHO cells (membrane pellets)
T2 sequence (P35346 whole entry): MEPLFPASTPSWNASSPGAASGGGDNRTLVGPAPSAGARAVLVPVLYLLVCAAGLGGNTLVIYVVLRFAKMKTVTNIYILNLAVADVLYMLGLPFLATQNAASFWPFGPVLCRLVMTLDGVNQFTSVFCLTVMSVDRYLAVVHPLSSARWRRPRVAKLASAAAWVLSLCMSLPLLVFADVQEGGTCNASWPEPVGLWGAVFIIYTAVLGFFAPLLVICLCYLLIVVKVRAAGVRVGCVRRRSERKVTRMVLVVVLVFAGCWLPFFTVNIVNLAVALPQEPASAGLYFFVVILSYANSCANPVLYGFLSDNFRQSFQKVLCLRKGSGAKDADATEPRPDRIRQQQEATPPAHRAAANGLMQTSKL

[3] = molecular target: T1, sst2 receptor; experiment: Somatostatin receptor affinity, displacement of 125I-[LTT]-SRIF-28 (sst2); type: binding; details: complete displacement of [Leu8,D-Trp22,125I-Tyr25]-SRIF-28; cell membrane pellets from human sst2-expressing endogeneous IMR32 cells; CEREP; mean ± SEM of three independent repetitions
Method: (§1) Determination of Somatostatin receptors affinity was performed at CEREP (Le Bois l'Evêque, B. P. 3,001, 86,600 Celle l'Evescault, France). Cell membrane pellets were prepared from human sst2-expressing endogeneous IMR32 cells, and sst5-expressing human CHO cells. For each of the tested compounds, complete displacement experiments with the universal SRIF radio-ligand [Leu^8, D-Trp^22, ^125I-Tyr^25]-SRIF-28 (125I-[LTT]-SRIF-28) (2000 Ci/mmol; Anawa, Wangen, Switzerland) were performed. As control, unlabeled seglitide and SRIF-14 were run in parallel, using the same increasing concentrations, with sst2 and sst5 subtypes, respectively. IC50 values were calculated by non-linear regression analysis of the competition curves generated with mean replicate values using Hill equation curve. The analysis was performed using software developed at CEREP (Hill software) and validated by comparison with data generated by the commercial software SigmaPlot 4.0 for Windows.
(§2) The three DOTA conjugated compounds 3b, 4b, and 5b were tested for their ability to bind to the sst2 and sst5 receptors subtypes in complete displacement experiments using the universal somatostatin radioligand [^125I]-[Leu^8,D-Trp^22,Tyr^25]-somatostatin-28. IC50 values were calculated after quantification of the data using a computer-assisted image processing system (Table 1). Receptor subtypes sst2 and sst5 were chosen for preliminary binding assays because of their overexpression in some tumor types (Miller et al., [1995]). In Table 1, the affinities of the parent unconjugated compounds 3a, 4a, and 5a are also reported for comparison (Di Cianni et al., [2010]).

[4] = molecular target: T2, sst5 receptor; experiment: Somatostatin receptor affinity, displacement of 125I-[LTT]-SRIF-28 (sst5); type: binding; details: complete displacement of [Leu8,D-Trp22,125I-Tyr25]-SRIF-28; cell membrane pellets from sst5-expressing human CHO cells; CEREP; mean ± SEM of three independent repetitions
Method: as §1, §2

[5] = native hormone; ref Weckbecker et al., 2003; cited from earlier work
Text: Radiolabeled peptides, targeting specific receptors of malignant cells, in primis GPCRs, have emerged in the past years as one of the most promising tools for diagnosis and therapy of several kinds of metastatic tumors which express these receptors (Ramogida and Orvig, [2013]). Somatostatins SRIF-14 and SRIF-28 are peptide hormones, which have a wide range of pharmacological actions on exocrine and endocrine secretions (Brazeau et al., [1973]) mediated by direct interaction with at least five GPCRs. Chemically, they are -S-S- bridged cyclic peptides containing 14 and 28 amino acids, respective ...

IC50 [3]	IC50 [4]	Molecule	IC50 [1]	IC50 [2]	in vivo half-life [5]
–	–	C[C@@H](O)[C@@H](CO)NC(=O)[C@@H]1C/C=C\C[C@H](NC(=O)[C@H](N)Cc2ccccc2)C(=O)N[C@@H](Cc2cccc3ccccc23)C(=O)N[C@H](Cc2c[nH]c3ccccc23)C(=O)N[C@@H](CCCCN)C(=O)N[C@@H](Cc2ccc(OCc3ccccc3)cc2)C(=O)N1 [Compound 5a] (H-[dF][AllylGly][1Nal][dW]KY(Bn)[AllylGly][Thr(ol)]; staple (Z) 2-7)	101 ± 9 nM	4.9 ± 1 nM	–
61 ± 5.4 nM	130 ± 7 nM	C[C@@H](O)[C@@H]1NC(=O)[C@H](CCCCN)NC(=O)[C@@H](Cc2c[nH]c3ccccc23)NC(=O)[C@H](Cc2cccc3ccccc23)NC(=O)[C@@H](NC(=O)[C@@H](Cc2ccccc2)NC(=O)CN2CCN(CC(=O)O)CCN(CC(=O)O)CCN(CC(=O)O)CC2)C/C=C\C[C@@H](C(=O)N[C@H](CO)[C@@H](C)O)NC1=O [Compound 3b] ({DOTA}-[dF][AllylGly][1Nal][dW]KT[AllylGly][Thr(ol)]; staple (Z) 2-7)	–	–	–
> 300 nM	91 ± 7.8 nM	C[C@@H](O)[C@@H](CO)NC(=O)[C@@H]1C/C=C\C[C@H](NC(=O)[C@@H](Cc2ccccc2)NC(=O)CN2CCN(CC(=O)O)CCN(CC(=O)O)CCN(CC(=O)O)CC2)C(=O)N[C@@H](Cc2ccccc2)C(=O)N[C@H](Cc2c[nH]c3ccccc23)C(=O)N[C@@H](CCCCN)C(=O)N[C@@H](Cc2ccc(OCc3ccccc3)cc2)C(=O)N1 [Compound 4b] ({DOTA}-[dF][AllylGly]F[dW]KY(Bn)[AllylGly][Thr(ol)]; staple (Z) 2-7)	–	–	–
–	–	C[C@@H](O)[C@@H]1NC(=O)[C@H](CCCCN)NC(=O)[C@@H](Cc2c[nH]c3ccccc23)NC(=O)[C@H](Cc2cccc3ccccc23)NC(=O)[C@@H](NC(=O)[C@H](N)Cc2ccccc2)C/C=C\C[C@@H](C(=O)N[C@H](CO)[C@@H](C)O)NC1=O [Compound 3a] (H-[dF][AllylGly][1Nal][dW]KT[AllylGly][Thr(ol)]; staple (Z) 2-7)	9.6 ± 0.9 nM	16.5 ± 4.5 nM	–
–	–	SRIF-14: native somatostatin peptide hormone, -S-S- bridged cyclic peptide containing 14 amino acids	–	–	< 3 min
> 100 nM and 160 nM	12 ± 2.6 nM	C[C@@H](O)[C@@H](CO)NC(=O)[C@@H]1C/C=C\C[C@H](NC(=O)[C@@H](Cc2ccccc2)NC(=O)CN2CCN(CC(=O)O)CCN(CC(=O)O)CCN(CC(=O)O)CC2)C(=O)N[C@@H](Cc2cccc3ccccc23)C(=O)N[C@H](Cc2c[nH]c3ccccc23)C(=O)N[C@@H](CCCCN)C(=O)N[C@@H](Cc2ccc(OCc3ccccc3)cc2)C(=O)N1 [Compound 5b] ({DOTA}-[dF][AllylGly][1Nal][dW]KY(Bn)[AllylGly][Thr(ol)]; staple (Z) 2-7)	–	–	–
–	–	C[C@@H](O)[C@@H](CO)NC(=O)[C@@H]1C/C=C\C[C@H](NC(=O)[C@H](N)Cc2ccccc2)C(=O)N[C@@H](Cc2ccccc2)C(=O)N[C@H](Cc2c[nH]c3ccccc23)C(=O)N[C@@H](CCCCN)C(=O)N[C@@H](Cc2ccc(OCc3ccccc3)cc2)C(=O)N1 [Compound 4a] (H-[dF][AllylGly]F[dW]KY(Bn)[AllylGly][Thr(ol)]; staple (Z) 2-7)	46 ± 3 nM	12.3 ± 0.3 nM	–
